Assay: xn = mol fraction of the nth substance listed

ClCCl + COc1ccccc1
303.15 K, 101.3 kPa
Conditions	viscosity [mPa·s]
x2 = 0.069	0.425
x2 = 0.321	0.527
x2 = 0.357	0.54
x2 = 0.4045	0.567
x2 = 0.6109	0.665
x2 = 0.658	0.688
x2 = 0.8807	0.82

O=S(=O)(O)O + COc1ccccc1
viscosity [mPa·s], 101 kPa
Conditions	x1 = 0.0892	x1 = 0.2274	x1 = 0.5064	x1 = 0.6238	x1 = 0.6321	x1 = 0.6494	x1 = 0.679	x1 = 0.7207	x1 = 0.746	x1 = 0.9241
293.15 K	1.46	3.17	41.69	260.3	172.8	263.5	317.9	262.1	201.3	34.68
303.15 K	1.35	1.79	30.05	166	100.8	141.3	182	151.4	131.3	22.53
313.15 K	1.25	2	23.8	87.9	70.2	79.44	105	83.3	71.9	16.6
323.15 K	1.15	2.58	17.8	72.9	42.1	47.4	83.18	50.18	44.8	11.9

CC1CCCC(C)C1=O (centres undefined) + COc1ccccc1N
viscosity [mPa·s], 100 kPa
Conditions	x2 = 0.0997	x2 = 0.1852	x2 = 0.2554	x2 = 0.3527	x2 = 0.4551	x2 = 0.5424	x2 = 0.6519	x2 = 0.7414	x2 = 0.8479
303.15 K	3.865	3.998	4.106	4.247	4.383	4.491	4.612	4.701	4.797
308.15 K	3.412	3.557	3.673	3.825	3.972	4.09	4.227	4.325	4.435
313.15 K	2.958	3.116	3.239	3.401	3.56	3.687	3.84	3.948	4.071

C1CCC2=[NH+]CCCN2CC1.c1c[n-]cn1 + CS(C)=O
298.15 K, 100 kPa
Conditions	viscosity [mPa·s]
x1 = 0.0998	3.113
x1 = 0.1996	4.415
x1 = 0.2995	6.054
x1 = 0.3994	8.104
x1 = 0.4994	10.52
x1 = 0.5994	13.65
x1 = 0.6995	17.39
x1 = 0.7996	22.07
x1 = 0.8998	27.44

CC(=O)O + CS(C)=O
viscosity [mPa·s]
Conditions	298.15 K	303.15 K	308.15 K	313.15 K	318.15 K	323.15 K
101 kPa, x2 = 0.2	2.359	–	–	–	–	–
101 kPa, x2 = 0.4	2.806	–	–	–	–	–
101 kPa, x2 = 0.6	2.525	–	–	–	–	–
101 kPa, x2 = 0.8	2.231	–	–	–	–	–
101.33 kPa, x1 = 0.0999	–	1.891	1.728	1.588	1.463	1.353
101.33 kPa, x1 = 0.199	–	1.975	1.803	1.655	1.525	1.411
101.33 kPa, x1 = 0.2973	–	2.082	1.898	1.738	1.605	1.482
101.33 kPa, x1 = 0.4013	–	2.265	2.06	1.884	1.732	1.59
101.33 kPa, x1 = 0.5005	–	2.383	2.165	1.975	1.809	1.664
101.33 kPa, x1 = 0.5997	–	2.46	2.223	2.024	1.848	1.695
101.33 kPa, x1 = 0.6966	–	2.374	2.148	1.946	1.78	1.628
101.33 kPa, x1 = 0.8068	–	2.05	1.857	1.694	1.549	1.425
101.33 kPa, x1 = 0.9006	–	1.601	1.464	1.345	1.241	1.149
101.33 kPa, x2 = 0.0978	1.755	–	1.458	–	1.229	–
101.33 kPa, x2 = 0.1997	2.299	–	1.876	–	1.552	–
101.33 kPa, x2 = 0.2991	2.631	–	2.142	–	1.762	–
101.33 kPa, x2 = 0.4069	2.728	–	2.228	–	1.84	–
101.33 kPa, x2 = 0.5247	2.661	–	2.17	–	1.784	–
101.33 kPa, x2 = 0.6036	2.465	–	2.034	–	1.694	–
101.33 kPa, x2 = 0.7038	2.303	–	1.91	–	1.591	–
101.33 kPa, x2 = 0.804	2.178	–	1.804	–	1.507	–
101.33 kPa, x2 = 0.903	2.081	–	1.733	–	1.443	–

— the CheMixHub viscosity set
